Experiments:
[1] = test system: Pythium ultimum; experiment: Cucumber damping-off (PU) control test; type: in vivo; details: Globisporangium ultimum, 168 h, soil irrigated with 30 ml emulsion at active ingredient concentration of 100 ppm, ratio of healthy seedlings on day 7 after planting vs untreated group
Procedure: 40 ml of sterile soil were placed in plastic cups followed by leveling the surface of the soil. The soil was then irrigated with 30 ml of the aforementioned emulsion of Preparation Example 2 at an active ingredient concentration of 100 ppm. Following irrigation, cucumbers (variety: Sagami Hanjiro) were planted in the soil and covered with 20 ml of contaminated soil (containing Pythium ultimum) from above. The cups were then placed in plastic bags and allowed to stand undisturbed for 3 days in a constant temperature room at 25° C. (dark location […]). Next, the plants were removed from the bags and held in a constant temperature room at 25° C. using a light-dark cycle of 12 hours. On day 7 after planting, the ratios of healthy seedlings were compared between an untreated group and treated group to calculate control effects (control values).

[2] = test system: Pythium aphanidermatum; experiment: Antimicrobial test (mycelia growth inhibition); type: cell-based; details: compound concentration of 1 ppm, PSY medium, 25° C., days 3 to 7 of culturing, read-out: mycelia growth inhibition rate
Procedure: The compound according to the present invention was dissolved in dimethylsulfoxide and diluted to double the prescribed concentration in a 96-well microplate using PSY medium to obtain a drug solution. On the other hand, a diluted dimethylsulfoxide solution was prepared using PSY medium for use as an untreated group.
A suspension of liquid-cultured test microorganisms (Pythium aphanidermatum) was mixed with an equal volume of the drug solution and cultured in a dark location at 25° C. Mycelia growth was observed on days 3 to 7 of culturing to determine mycelia growth inhibition rates.

[3] = test system: tomato late blight pathogen (Phytophthora infestans); experiment: whole plant or invertebrate; type: in vivo; details: 96 h, read-out: control value

SMILES	pest or weed control at 100 ppm [1] [%]	inhibition at 1 ppm [2] [%]	pest or weed control at 100 µg/mL [3] [%]
CCOC(OCC)C(=O)Nc1cccc(CO/N=C(/c2ccccc2)c2nnnn2C)n1 [a-1]	≥ 50	≥ 50	≥ 70
COC(CC(=O)Nc1cccc(CO/N=C(/c2ccccc2)c2nnnn2C)n1)OC [a-2, (Z)-(1-methyl-1H-tetrazol-5-yl)phenylmethanone-o-[2-(2,2-dimethoxyethanecarbonylamino)pyridin-6-ylmethyl]oxime]	≥ 50	≥ 50	≥ 70
Cn1nnnc1/C(=N\OCc1cccc(NC(=O)C2OCCO2)n1)c1ccccc1 [a-4]	≥ 50	≥ 50	≥ 70
Cn1nnnc1/C(=N\OCc1cccc(NC(=O)C2(C)OCCO2)n1)c1ccccc1 [a-5]		≥ 50	
CCOC(CC(=O)Nc1cccc(CO/N=C(/c2ccccc2)c2nnnn2C)n1)OCC [a-6]	≥ 50	≥ 50	≥ 70
Cn1nnnc1/C(=N\OCc1cccc(NC(=O)CC2OCCO2)n1)c1ccccc1 [a-7]	≥ 50	≥ 50	≥ 70
CC(C)OC(OC(C)C)C(=O)Nc1cccc(CO/N=C(/c2ccccc2)c2nnnn2C)n1 [a-8]	≥ 50		≥ 70
CCCOC(OCCC)C(=O)Nc1cccc(CO/N=C(/c2ccccc2)c2nnnn2C)n1 [a-9]	≥ 50	≥ 50	≥ 70
CC1COC(CC(=O)Nc2cccc(CO/N=C(/c3ccccc3)c3nnnn3C)n2)O1 (stereo not shown) [a-10]		≥ 50	≥ 70
CCC1COC(CC(=O)Nc2cccc(CO/N=C(/c3ccccc3)c3nnnn3C)n2)O1 (stereo not shown) [a-11]		≥ 50	≥ 70
CC1OC(CC(=O)Nc2cccc(CO/N=C(/c3ccccc3)c3nnnn3C)n2)OC1C (stereo not shown) [a-12]		≥ 50	≥ 70
CC(C(=O)Nc1cccc(CO/N=C(/c2ccccc2)c2nnnn2C)n1)C1(C)OCCO1 (stereo not shown) [a-13]			≥ 70
Cn1nnnc1/C(=N\OCc1cccc(NC(=O)CC2OCC(C)(C)CO2)n1)c1ccccc1 [a-15]		≥ 50	≥ 70
Cn1nnnc1/C(=N\OCc1cccc(NC(=O)CC2(C)OCCO2)n1)c1ccccc1 [a-16]			≥ 70
COC(CCC(=O)Nc1cccc(CO/N=C(/c2ccccc2)c2nnnn2C)n1)OC [a-17]	≥ 50	≥ 50	≥ 70
CCOC(C)(OCC)C(=O)Nc1cccc(CO/N=C(/c2ccccc2)c2nnnn2C)n1 [a-18]	≥ 50		≥ 70
COC(C)(OC)C(=O)Nc1cccc(CO/N=C(/c2ccccc2)c2nnnn2C)n1 [a-19]		≥ 50	≥ 70
CCOC(OCC)C(C)C(=O)Nc1cccc(CO/N=C(/c2ccccc2)c2nnnn2C)n1 (stereo not shown) [a-20]	≥ 50	≥ 50	≥ 70
CCOC(OCC)C(C)(C)C(=O)Nc1cccc(CO/N=C(/c2ccccc2)c2nnnn2C)n1 [a-21]	≥ 50		≥ 70
CCSC(SCC)C(=O)Nc1cccc(CO/N=C(/c2ccccc2)c2nnnn2C)n1 [a-22]	≥ 50	≥ 50	≥ 70
Cn1nnnc1/C(=N\OCc1cccc(NC(=O)C2SCCCS2)n1)c1ccccc1 [a-23]	≥ 50	≥ 50	≥ 70
Cn1nnnc1/C(=N\OCc1cccc(NC(=O)C2(C)OCCCO2)n1)c1ccccc1 [a-24, (Z)-(1-methyl-1H-tetrazol-5-yl)phenylmethanone-o-[2-(2-methyl-1,3-dioxan-2-yl-carbonylamino)pyridin-6-ylmethyl]oxime]		≥ 50	≥ 70
Cn1nnnc1/C(=N\OCc1cccc(NC(=O)C2(C)OCCCCO2)n1)c1ccccc1 [a-25]	≥ 50	≥ 50	≥ 70
CCOC(SCC)C(=O)Nc1cccc(CO/N=C(/c2ccccc2)c2nnnn2C)n1 (stereo not shown) [a-26]	≥ 50	≥ 50	≥ 70

SMILES	pest or weed control at 100 ppm [1] [%]	inhibition at 1 ppm [2] [%]	pest or weed control at 100 µg/mL [3] [%]
Cn1nnnc1/C(=N\OCc1cccc(NC(=O)C2(C)OCCCCCO2)n1)c1ccccc1 [a-27]	≥ 50	≥ 50	≥ 70
Cn1nnnc1/C(=N\OCc1cccc(NC(=O)C2(C)OCCOCCO2)n1)c1ccccc1 [a-28]	≥ 50	≥ 50	≥ 70
COCCOC(C)(OCCOC)C(=O)Nc1cccc(CO/N=C(/c2ccccc2)c2nnnn2C)n1 [a-32]			≥ 70
COCCC(=O)Nc1cccc(CO/N=C(/c2ccccc2)c2nnnn2C)n1 [b-1]		≥ 50	≥ 70
COC(C)C(=O)Nc1cccc(CO/N=C(/c2ccccc2)c2nnnn2C)n1 (stereo not shown) [b-4]		≥ 50	
CCOCC(C)(COCC)C(=O)Nc1cccc(CO/N=C(/c2ccccc2)c2nnnn2C)n1 [b-5]		≥ 50	
COCCC(C)C(=O)Nc1cccc(CO/N=C(/c2ccccc2)c2nnnn2C)n1 (stereo not shown) [b-9]	≥ 50		
COCCCCC(=O)Nc1cccc(CO/N=C(/c2ccccc2)c2nnnn2C)n1 [b-11]	≥ 50		
Cn1nnnc1/C(=N\OCc1cccc(NC(=O)OCC2(C)COCOC2)n1)c1ccccc1 [c-2]		≥ 50	≥ 70
Cn1nnnc1/C(=N\OCc1cccc(NC(=O)OCC2(C)COC(C)(C)OC2)n1)c1ccccc1 [c-3]		≥ 50	≥ 70
CC(OC(=O)Nc1cccc(CO/N=C(/c2ccccc2)c2nnnn2C)n1)C1OCCCO1 (stereo not shown) [c-11]		≥ 50	≥ 70
Cn1nnnc1/C(=N\OCc1cccc(NC(=O)OC(C)(C)C2OCCCO2)n1)c1ccccc1 [c-12]		≥ 50	≥ 70
CCOC1(OC(=O)Nc2cccc(CO/N=C(/c3ccccc3)c3nnnn3C)n2)CC1 [d-2]			≥ 70
Cn1nnnc1/C(=N\OCc1cccc(NC(=O)OCC2CO2)n1)c1ccccc1 (stereo not drawn) [d-5]			≥ 70
Cn1nnnc1/C(=N\OCc1cccc(NC(=O)OC2(C)CCOCC2)n1)c1ccccc1 [d-6]		≥ 50	≥ 70
Cn1nnnc1/C(=N\OCc1cccc(NC(=O)OC2(C)CCSCC2)n1)c1ccccc1 [d-7]			≥ 70
CCOCCCC(C)(C)OC(=O)Nc1cccc(CO/N=C(/c2ccccc2)c2nnnn2C)n1 [d-9]		≥ 50	≥ 70
COCCC(C)(C)OC(=O)Nc1cccc(CO/N=C(/c2ccccc2)c2nnnn2C)n1 [d-10]	≥ 50		≥ 70
COCCCCOC(=O)Nc1cccc(CO/N=C(/c2ccccc2)c2nnnn2C)n1 [d-11]		≥ 50	≥ 70
COCCCOC(=O)Nc1cccc(CO/N=C(/c2ccccc2)c2nnnn2C)n1 [d-12]		≥ 50	≥ 70
CCOC(OCC)C(=O)Nc1cccc(CO/N=C(/c2cccc(F)c2)c2nnnn2C)n1 [e-1]		≥ 50	≥ 70
CCOC(OCC)C(=O)Nc1cccc(CO/N=C(/c2ccc(F)c(C)c2)c2nnnn2C)n1 [e-2]		≥ 50	≥ 70
CCOC(OCC)C(=O)Nc1ccc(Cl)c(CO/N=C(/c2ccccc2)c2nnnn2C)n1 [e-3]		≥ 50	≥ 70

From patent US9156816B2 (priority 2010, dated 2015)
